Assay: Radical oxidation of DHAs with AAPH, LC-MS/MS quantification of 4-F4t-NeuroP
Assay type: physicochemical
Details: AAPH 1 mM, phosphate buffer/methanol, 37 °C, 14 h; compared to natural DHA
Protocol: A solution of DHA in methanol (1 mg/mL, 0.5 mL) was added to 4.5 mL of phosphate-buffered saline solution (pH = 7.3) containing 1 mM of AAPH. The mixture was heated at 37 °C for 14 h, and then allowed to reach room temperature The mixture was spiked with 4 ng of internal standard (IS: C21-15-F2t-IsoP) and then purified using solid phase extraction.
For solid-phase extraction (SPE), Oasis MAX mixed polymer phase anion exchanger cartridges were used. Aliquots of 2 mL of sample were loaded on the cartridges previously conditioned with 2 mL of methanol and equilibrated with 2 mL of 0.02 M of formic acid (pH 4.5). […] Recoveries were determined to range between 83 and 100% (see Supplementary Materials). […]
Mass spectrometry analysis was performed on an AB SCIEX QTRAP 5500 (Sciex). […] Quantification was accomplished using external calibration lines constructed with the internal standard (IS: C21-15-F2t-IsoP). The data are presented as means ± SD determined from 3 independent experiments, each performed in triplicate assay.
Standards solutions of IS (C21-15-F2t-IsoP) and NeuroP standardt (4(RS)-F4t-NeuroP) used to determine the different characteristic transitions and the elution time for each compound were prepared in methanol at 1 µg/mL from 1 mg/mL stock solution in methanol. […] Finally, calibration curves were calculated by the area ratio of the NeuroP and the internal standard.

[2H]C([2H])(/C=C\C/C=C\C/C=C\C/C=C\C/C=C\CC)/C=C\CCC(=O)O [D2-DHA, (6,6-D2)-DHA]
4-F4t-NeuroP formation after radical oxidation: decrease of 4-F4t-NeuroP formation

[2H]C([2H])(C=CCC=CCC=CCC=CCC)C=CC([2H])([2H])C=CCCC(=O)O [D4-DHA, (6,6,9,9-D4)-DHA]
4-F4t-NeuroP formation after radical oxidation: decrease of 4-F4t-NeuroP formation
